Test results reported in patent publication US11464749B2, “Bismuth-thiol compositions and methods of use” (Microbion Corporation, priority 2018, dated 2022).
Converted amounts (≈) assume the structure as drawn. “And” between values parts separate entries of the source, which are not always exact repeats. Identical values can stand only once. Like-named read-outs stand apart in the source and are kept apart here.

Tests used:
C. parapsilosis [1] = assay: Broth microdilution MIC, yeast (Example 11); assay type: cell-based
C. albicans = assay: Broth microdilution MIC, yeast (Example 11); assay type: cell-based; conditions: Sensitive
C. glabrata = assay: Broth microdilution MIC, yeast (Example 11); assay type: cell-based; conditions: FLU^R
C. tropicalis = assay: Broth microdilution MIC, yeast (Example 11); assay type: cell-based; conditions: FLU^R
C. parapsilosis [2] = conditions: C. parapsilosis MMX 2323 (ATCC 22019), cited from earlier work
P. aeruginosa = assay: FIC checkerboard assay; assay type: cell-based; conditions: Pseudomonas aeruginosa, read-out: Drug B MIC
B. cepacia = assay: FIC checkerboard assay; assay type: cell-based; conditions: Burkholderia cepacia, Tobramycin alone (checkerboard with BisEDT), read-out: Drug B MIC
B. cenocepacia = assay: FIC checkerboard assay; assay type: cell-based; conditions: for FICB: FIC of Tobramycin in combination with BisEDT; for MIC: Burkholderia cenocepacia, Tobramycin alone (panel with BisEDT), read-out: Drug B MIC
Burkholderia spp. = assay: organism not typed; assay type: cell-based; conditions: read-out: Drug B MIC
[3] = Particle size distribution of exposure aerosols (In-Tox Mercer Impactor); conditions: rat efficacy study exposure atmospheres

`C[C@@H]1[C@H](O)[C@@H](C)/C=C/C=C/C=C/C=C/C=C/C=C/C=C/[C@H](O[C@@H]2O[C@H](C)[C@@H](O)[C@H](N)[C@@H]2O)C[C@@H]2O[C@](O)(C[C@@H](O)C[C@@H](O)[C@H](O)CC[C@@H](O)C[C@@H](O)CC(=O)O[C@H]1C)C[C@H](O)[C@H]2C(=O)O` [Amphotericin B] showed an MIC (C. parapsilosis [1]; C. parapsilosis MMX 2323 (ATCC 22019), QC, 24 hr) of 0.5 µg/mL (≈ 0.541 µM), an MIC (C. parapsilosis [1]; C. parapsilosis MMX 2323 (ATCC 22019), QC, 48 hr) of 1 µg/mL (≈ 1.08 µM) and an MIC (C. parapsilosis [1]; C. parapsilosis MMX 7370, FLU^R, 24 hr) of 0.5 µg/mL (≈ 0.541 µM). For the same molecule, the MIC (C. parapsilosis [1]; C. parapsilosis MMX 7370, FLU^R, 48 hr) was 1 µg/mL (≈ 1.08 µM), the MIC (C. albicans; C. albicans MMX 7055, 24 hr) was 0.25 µg/mL (≈ 0.271 µM) and the MIC (C. albicans; C. albicans MMX 7055, 48 hr) was 0.5 µg/mL (≈ 0.541 µM). It also gave an MIC (C. glabrata; C. glabrata MMX 7086, 24 hr) of 0.5 µg/mL (≈ 0.541 µM), an MIC (C. glabrata; C. glabrata MMX 7086, 48 hr) of 1 µg/mL (≈ 1.08 µM) and an MIC (C. glabrata; C. glabrata MMX 7318, 24 hr) of 0.5 µg/mL (≈ 0.541 µM). The MIC (C. glabrata; C. glabrata MMX 7318, 48 hr) was 1 µg/mL (≈ 1.08 µM), the MIC (C. tropicalis; C. tropicalis MMX 7247, 24 hr) was 0.5 µg/mL (≈ 0.541 µM) and the MIC (C. tropicalis; C. tropicalis MMX 7247, 48 hr) was 1 µg/mL (≈ 1.08 µM). The MIC (C. tropicalis; C. tropicalis MMX 7248, 24 hr) was 0.5 µg/mL (≈ 0.541 µM), the MIC (C. tropicalis; C. tropicalis MMX 7248, 48 hr) was 1 µg/mL (≈ 1.08 µM) and the “MIC, CLSI QC range” value (C. parapsilosis [2]; 48 hr) was 0.5 to 4 µg/mL.
With `NC[C@H]1O[C@H](O[C@H]2[C@H](O)[C@@H](O[C@H]3O[C@H](CO)[C@@H](O)[C@H](N)[C@H]3O)[C@H](N)C[C@@H]2N)[C@H](N)C[C@@H]1O` [Tobramycin, reference compound] the MIC (P. aeruginosa; P. aeruginosa 6977, Tobramycin alone (checkerboard with BisEDT)) was 128 µg/mL, the MIC (P. aeruginosa; P. aeruginosa 7745, Tobramycin alone (checkerboard with BisEDT)) was 0.5 µg/mL and the MIC (P. aeruginosa; P. aeruginosa 8798, Tobramycin alone (checkerboard with BisEDT)) was 0.016 µg/mL. For the same molecule, the MIC (P. aeruginosa; P. aeruginosa 9108, Tobramycin alone (checkerboard with BisEDT)) was 0.5 µg/mL, the MIC (P. aeruginosa; Tobramycin alone, FIC panel with BisEDT, P. aeruginosa 6322) was 128 µg/mL and the MIC (B. cepacia; B. cepacia 546) was 32 µg/mL. The MIC (B. cepacia; B. cepacia 1793) was 16 µg/mL, the FICB (B. cenocepacia; B. cenocepacia 548, per checkerboard row) was 0.5 and the MICB (B. cenocepacia; B. cenocepacia 548, MIC of Tobramycin in combination with BisEDT, per checkerboard row) was 8 µg/mL and 16 µg/mL. The FICB (B. cenocepacia; B. cenocepacia 813, per checkerboard row) was 0.5 and 1, the MIC (B. cenocepacia; B. cenocepacia 548) was 32 µg/mL and the MIC (B. cenocepacia; B. cenocepacia 813) was 256 µg/mL. For the same molecule, the MIC (Burkholderia spp.) was greater than 256 µg/mL and the “MMAD of exposure aerosol” value [3] was 2.81 μm.
Work on `OC(Cn1cncn1)(Cn1cncn1)c1ccc(F)cc1F` [fluconazole, Fluconazole, reference compound] yielded an MIC (C. parapsilosis [1]; Lodderomyces parapsilosis, 24 h, C. parapsilosis MMX 7370, FLU^R, 24 hr, read-out: MIC (converted)) of 32 µg/mL (≈ 104 µM), an MIC (C. parapsilosis [1]; Lodderomyces parapsilosis, 24 h, C. parapsilosis MMX 7555, FLU^R, 24 hr, read-out: MIC (converted)) of 32 µg/mL (≈ 104 µM) and an MIC (C. parapsilosis [1]; Lodderomyces parapsilosis, 48 h, C. parapsilosis MMX 7370, FLU^R, 48 hr, read-out: MIC (converted)) of 32 µg/mL (≈ 104 µM). It also gave an MIC (C. parapsilosis [1]; Lodderomyces parapsilosis, 48 h, C. parapsilosis MMX 7555, FLU^R, 48 hr, read-out: MIC (converted)) of 64 µg/mL (≈ 209 µM), an MIC (C. parapsilosis [1]; Lodderomyces parapsilosis, ATCC22019, 24 h, C. parapsilosis MMX 2323 (ATCC 22019), QC, 24 hr, read-out: MIC (converted)) of 2 µg/mL (≈ 6.53 µM) and an MIC (C. parapsilosis [1]; Lodderomyces parapsilosis, ATCC22019, 48 h, C. parapsilosis MMX 2323 (ATCC 22019), QC, 48 hr, read-out: MIC (converted)) of 2 µg/mL (≈ 6.53 µM). For the same molecule, the MIC (C. albicans; Candida albicans, 24 h, C. albicans MMX 7039, 24 hr, read-out: MIC) was 0.5 µg/mL (≈ 1.63 µM), the MIC (C. albicans; Candida albicans, 24 h, C. albicans MMX 7055, 24 hr, read-out: MIC) was 0.25 µg/mL (≈ 0.816 µM) and the MIC (C. albicans; Candida albicans, 48 h, C. albicans MMX 7039, 48 hr, read-out: MIC) was 0.5 µg/mL (≈ 1.63 µM). The MIC (C. albicans; Candida albicans, 48 h, C. albicans MMX 7055, 48 hr, read-out: MIC) was 0.5 µg/mL (≈ 1.63 µM), the MIC (C. glabrata; Nakaseomyces glabratus, 24 h, C. glabrata MMX 7086, 24 hr, read-out: MIC) was 32 µg/mL (≈ 104 µM) and the MIC (C. glabrata; Nakaseomyces glabratus, 24 h, C. glabrata MMX 7318, 24 hr, read-out: MIC) was greater than 64 µg/mL. The MIC (C. glabrata; Nakaseomyces glabratus, 48 h, C. glabrata MMX 7086, 48 hr, read-out: MIC) was 64 µg/mL (≈ 209 µM), the MIC (C. glabrata; Nakaseomyces glabratus, 48 h, C. glabrata MMX 7318, 48 hr, read-out: MIC) was greater than 64 µg/mL and the MIC (C. tropicalis; Candida tropicalis, 24 h, C. tropicalis MMX 7247, 24 hr, read-out: MIC) was 64 µg/mL (≈ 209 µM). For the same molecule, the MIC (C. tropicalis; Candida tropicalis, 24 h, C. tropicalis MMX 7248, 24 hr, read-out: MIC) was 32 µg/mL (≈ 104 µM), the MIC (C. tropicalis; Candida tropicalis, 24 h, C. tropicalis MMX 7360, 24 hr, read-out: MIC) was 64 µg/mL (≈ 209 µM) and the MIC (C. tropicalis; Candida tropicalis, 48 h, C. tropicalis MMX 7247, 48 hr, read-out: MIC) was greater than 64 µg/mL. The MIC (C. tropicalis; Candida tropicalis, 48 h, C. tropicalis MMX 7248, 48 hr, read-out: MIC) was greater than 64 µg/mL, the MIC (C. tropicalis; Candida tropicalis, 48 h, C. tropicalis MMX 7360, 48 hr, read-out: MIC) was greater than 64 µg/mL and the “MIC, CLSI QC range” value (C. parapsilosis [2]; 24 hr) was 0.5 to 4 µg/mL. For the same molecule, the “MIC, CLSI QC range” value (C. parapsilosis [2]; 48 hr) was 1 to 4 µg/mL.
